Values joined by “and” are separate entries in the source; they are usually repeats but may differ in a detail not shown here. Equal entries are not always repeated.
Assays:
Format in all cases: cell-based
[1] = DNA delivery: raw luciferase expression (relative light units) of best-transfecting lipids; conditions: 300 ng of DNA per well
Protocol: Raw values for luciferase expression (relative lights units) of best-transfecting lipids at lipid/DNA (w/w) ratios listed. 300 ng of DNA was added per well.

cos-7 cells = test: DNA transfection: luciferase expression relative to Lipofectamine 2000; conditions: for luciferase expression (second part of table, values relative to LIPO2000): 300 ng of DNA per well
Method in brief: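 cos-7 cells were transfected with 300 ng/well luciferase DNA complexed with lipid at ratios from 2.5 to 25 w/w. Bright-Glo luminescence was read after 48 hours and converted to ng luciferase by standard curve. Data are percent of the Lipofectamine 2000 control (2.5 w/w).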

[2] = tested on: renilla and firefly luciferases; test: siRNA delivery: reporter-protein (renilla luciferase) knockdown relative to Lipofectamine 2000, firefly luciferase as viability control; conditions: 50 ng of siRNA per well
Protocol: Reporter-protein knockdown achieved by the top transfecting lipids relative to Lipofectamine™ 2000 (where negative values indicate improved knockdown). The assay accounts for toxicity, monitoring expression of both renilla and firefly luciferases, where the latter serves as viability control. For each lipid, 50 ng of siRNA was added per well at specific lipid/RNA w/w ratios (from top to bottom: 2.5, 5, 10, 15).

[3] = 1st column, no head printed (2.5 w/w by the raw values)
[4] = 2nd column, no head printed (5 w/w by the raw values)
[5] = 3rd column, no head printed (10 w/w by the raw values)
[6] = 4th column, no head printed (15 w/w by the raw values)

Row | Compound | Raw values for luciferase expression ([1]; lipid/DNA 2.5 w/w) | Raw values for luciferase expression ([1]; lipid/DNA 5 w/w) | luciferase expression (second part of table, values relative to LIPO2000) (cos-7 cells; lipid/DNA 2.5 w/w) | luciferase expression (second part of table, values relative to LIPO2000) (cos-7 cells; lipid/DNA 5 w/w) | luciferase expression (second part of table, values relative to LIPO2000) (cos-7 cells; lipid/DNA 10 w/w) | luciferase expression (second part of table, values relative to LIPO2000) (cos-7 cells; lipid/DNA 15 w/w) | luciferase expression, second set of columns (replicate set of data) (cos-7 cells; [3]) | luciferase expression, second set of columns (replicate set of data) (cos-7 cells; [4]) | luciferase expression, second set of columns (replicate set of data) (cos-7 cells; [5]) | luciferase expression, second set of columns (replicate set of data) (cos-7 cells; [6]) | Reporter-protein knockdown relative to Lipofectamine 2000 (negative values indicate improved knockdown) ([2]; lipid/RNA 2.5 w/w) | Reporter-protein knockdown relative to Lipofectamine 2000 (negative values indicate improved knockdown) ([2]; lipid/RNA 5 w/w) | Reporter-protein knockdown relative to Lipofectamine 2000 (negative values indicate improved knockdown) ([2]; lipid/RNA 10 w/w) | Reporter-protein knockdown relative to Lipofectamine 2000 (negative values indicate improved knockdown) ([2]; lipid/RNA 15 w/w) | Raw values for luciferase expression ([1]; lipid/DNA 10 w/w) | Raw values for luciferase expression ([1]; lipid/DNA 15 w/w)
1 | CCCCCCCCCCCCNC(=O)CCN(CCC(=O)NCCCCCCCCCCCC)CCN(CCC(=O)NCCCCCCCCCCCC)CCC(=O)NCCCCCCCCCCCC [ND99] | 10252260 relative lights units and 11757295 relative lights units | 9886021 relative lights units and 7656193 relative lights units | 16.8 | 36.5 | 78.6 | 91.7 | 132.7 | 97.5 | 6.8 | 2.2 | −10.1961 | −9.86 | −18.2728 | −20.0273 | – | –
2 | CCCCCCCCCCCCCCNC(=O)CCN(C)CCCN(CCC(=O)NCCCCCCCCCCCCCC)CCC(=O)NCCCCCCCCCCCCCC [NF96] | – | – | 221.5 | 44.3 | 0.2 | 0.1 | 79.4 | 40.8 | 29.2 | 2.4 | −6.262 | −2.035 | 63.2 | 90.8142 | 2048655 relative lights units | 167043 relative lights units

Source: patent US9006487B2, “Amine-containing lipids and uses thereof” (Massachusetts Institute of Technology, priority 2005, dated 2015)
